Experiments:
[1] = Anti-glycation effect (L-arginine and glucose); conditions: 70 ℃, 4 h, 420 nm
[2] = test system: B-16 mouse melanoma cells [쥐의 멜라노마 세포(B-16 mouse melanoma cell)]; experiment: Melanin total amount reduction in B-16 mouse melanoma cells (whitening effect); assay type: cell-based; conditions: 3 days, n = 3; for melanin production amount: absorbance at 400 nm per 1×10^6 cells
[3] = Free radical scavenging (DPPH), antioxidant effect; conditions: 37 ℃, 30 min, 520 nm, n = 3
[4] = test system: human-derived fibroblasts, type I collagen [인간 유래 섬유아세포, 제1형 콜라겐]; experiment: Type I collagen synthesis promotion in human-derived fibroblasts (PICP EIA kit); assay type: cell-based; conditions: 48 h, n = 4
[5] = test system: RAW264.7 cells, nitric oxide (NO) [RAW264.7 세포, 일산화질소(NO)]; experiment: NO production inhibition in LPS-stimulated RAW264.7 cells (GRIESS method); assay type: cell-based; conditions: Mus musculus, LPS 1 ㎍, 24 h, read-out: NO production inhibition rate
collagenase [콜라게네이즈] = experiment: Collagenase activity inhibition; assay type: biochemical, rat/mouse; conditions: pH 7.5, room temperature, n = 3; for enzyme activity: maximum slope of absorbance at 345 nm; for inhibition rate: collagenase
elastase [엘라스타제] = target: T1, elastase [엘라스타제] (Homo sapiens, UniProt P08246); experiment: Elastase activity inhibition; assay type: biochemical; conditions: pH 7.5, room temperature, n = 3; for enzyme activity: slope of absorbance at 405 nm
T1 construct: 엘라스타제(elastase)는 사람의 백혈구 세포로부터 유래한 것을 사용하였고; from tissue; host or cells: human leukocytes
T1 sequence (P08246 30-267): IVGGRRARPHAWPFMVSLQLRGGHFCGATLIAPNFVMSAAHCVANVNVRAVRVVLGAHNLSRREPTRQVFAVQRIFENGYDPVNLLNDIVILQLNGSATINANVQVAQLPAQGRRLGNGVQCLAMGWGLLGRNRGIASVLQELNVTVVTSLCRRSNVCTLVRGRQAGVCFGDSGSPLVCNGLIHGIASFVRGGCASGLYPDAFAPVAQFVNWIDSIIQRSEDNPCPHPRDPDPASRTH

**Q.** Which inhibition rate ([1]; 55 ppm) does the source give for `N=C(N)NN` [Aminoguanidine, reference compound] here?
**A.** 54.89%

**Q.** What does the source list for `OC[C@H]1O[C@@H](Oc2ccc(O)cc2)[C@H](O)[C@@H](O)[C@@H]1O` [알부틴, reference compound]?
**A.** melanin production amount ([2]; 100 ppm): 0.228 abs; inhibition at 100 ppm ([2]; Mus musculus, 72 h, total melanin vs negative control, 100 ppm, read-out: inhibition rate): 30.9%

**Q.** With `O=C1O[C@H]([C@@H](O)CO)C(O)=C1O` [비타민 C, L-Ascorbic acid, reference compound] as the molecule, how does the “free radical scavenging rate (IC50)” value [3] read?
**A.** 7.5

**Q.** And the “type I collagen production amount” value ([4]; 50 ppm)?
**A.** 246.8 ng/mL

**Q.** What about the activation at 50 ppm ([4]; Homo sapiens, Fibroblast, collagen production vs negative control, 50 ppm, read-out: increase rate) of the same molecule?
**A.** 64.3%

**Q.** Which inhibition at 1 ppm ([5]; 1 ppm) does the source give for `O=c1oc2c(O)cc(O)cc2c2oc3cc(O)c(O)cc3c12` [화학식1의 화합물, 2,4,8,9-tetrahydroxy-[1]benzofuro[3,2-c]chromen-6-one] here?
**A.** 36.2%

**Q.** And the inhibition at 10 ppm [5]?
**A.** 43.9%

**Q.** What about the inhibition at 100 ppm ([5]; 100 ppm) of the same molecule?
**A.** 55.2%

**Q.** And the melanin production amount ([2]; 1 ppm)?
**A.** 0.251 abs

**Q.** And the melanin production amount ([2]; 10 ppm)?
**A.** 0.232 abs

**Q.** What about the inhibition at 1 ppm ([2]; Mus musculus, 72 h, total melanin vs negative control, 1 ppm, read-out: inhibition rate) of the same molecule?
**A.** 23.9%

**Q.** What about the inhibition at 10 ppm ([2]; Mus musculus, 72 h, total melanin vs negative control, 10 ppm, read-out: inhibition rate) of the same molecule?
**A.** 29.7%

**Q.** What about the inhibition rate ([1]; 25 ppm) of the same molecule?
**A.** 44.32%

**Q.** What about the inhibition rate ([1]; 50 ppm) of the same molecule?
**A.** 65.20%

**Q.** What about the enzyme activity (collagenase [콜라게네이즈]; 100 ppm) of the same molecule?
**A.** -2.34

**Q.** And the enzyme activity (collagenase [콜라게네이즈]; 200 ppm)?
**A.** -2.61

**Q.** What about the inhibition rate (collagenase [콜라게네이즈]; 100 ppm) of the same molecule?
**A.** 24.57%

**Q.** And the inhibition rate (collagenase [콜라게네이즈]; 200 ppm)?
**A.** 32.37%

**Q.** And the “type I collagen production amount” value ([4]; 1 ppm)?
**A.** 180.3 ng/mL

**Q.** What about the “type I collagen production amount” value ([4]; 10 ppm) of the same molecule?
**A.** 260.1 ng/mL

**Q.** What about the activation at 1 ppm ([4]; Homo sapiens, Fibroblast, collagen production vs negative control, 1 ppm, read-out: increase rate) of the same molecule?
**A.** 20%

**Q.** And the activation at 10 ppm ([4]; Homo sapiens, Fibroblast, collagen production vs negative control, 10 ppm, read-out: increase rate)?
**A.** 73.2%

**Q.** And the enzyme activity (elastase [엘라스타제]; 10 ppm)?
**A.** 3.7

**Q.** And the enzyme activity (elastase [엘라스타제]; 20 ppm)?
**A.** 3.2

**Q.** What about the inhibition at 10 ppm (elastase [엘라스타제]; elastase, 10 ppm, read-out: inhibition rate) of the same molecule?
**A.** 64.4%

**Q.** And the inhibition at 20 ppm (elastase [엘라스타제]; elastase, 20 ppm, read-out: inhibition rate)?
**A.** 69.1%

**Q.** For `CNC(=N)NCCC[C@H](N)C(=O)O` [L-NMMA, L-NG-Monomethylarginine, reference compound], which inhibition at 10 ppm [5] is on record?
**A.** 41%
